Data taken from ChEMBL document CHEMBL1201862, “PubChem BioAssay data set” (2004).
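Dose response: 5 concentrations. Exposure: 48 h. Format: 96-well plates. Endpoint: linear interpolation; highest concentration if not reached. GI50 is the concentration that inhibits growth by half.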 Activity calls are given as the source filed them. Cut-off read from the data, not from the text of the source: active = GI50 up to about 1.1 µM and inactive = higher.

Columns and labels:
Experiment in all cases: DTP human tumour cell line panel, 48 h
UO-31 = test system: UO-31
ACHN = test system: ACHN
SK-OV-3 = test system: SK-OV-3
HCT-116 = test system: HCT-116
LOX IMVI = test system: LOX IMVI
786-0 = test system: 786-0
Malme-3M = test system: Malme-3M
NCI-H23 = test system: NCI-H23
SK-MEL-2 = test system: SK-MEL-2
COLO 205 = test system: COLO 205
UACC-257 = test system: UACC-257
SNB-75 = test system: SNB-75
OVCAR-3 = test system: OVCAR-3
EKVX = test system: EKVX
SN12C = test system: SN12C
OVCAR-4 = test system: OVCAR-4
CAKI-1 = test system: CAKI-1

Measured: GI50

Cc1ccc2c(c1)-c1c3c(nn1-c1ccccc1)-c1ccccc1SC3O2 (stereo unspecified)
inactive: UO-31 > 100 µM | ACHN > 100 µM | SK-OV-3 > 100 µM | HCT-116 > 100 µM | LOX IMVI > 100 µM | 786-0 > 100 µM | Malme-3M > 100 µM | NCI-H23 > 100 µM | SK-MEL-2 > 100 µM | COLO 205 > 100 µM | UACC-257 > 100 µM | SNB-75 > 100 µM | OVCAR-3 > 100 µM | EKVX > 100 µM

COc1ccc(S(=O)(=O)N[C@H](C(=O)O)c2ccccc2)cc1
inactive: UO-31 > 100 µM | ACHN > 100 µM | SK-OV-3 > 100 µM | HCT-116 > 100 µM | LOX IMVI > 100 µM | 786-0 > 100 µM | Malme-3M > 100 µM | NCI-H23 > 100 µM | SN12C > 100 µM | OVCAR-4 > 100 µM | SK-MEL-2 > 100 µM | COLO 205 > 100 µM | UACC-257 > 100 µM | CAKI-1 > 100 µM | SNB-75 > 100 µM | OVCAR-3 > 100 µM | EKVX > 100 µM

Cc1cc(C)nc(NS(=O)(=O)c2ccc(Nc3c4ccccc4nc4c(C(=O)N5CCN(CCO)CC5)ccc(Cl)c34)cc2)n1
inactive: UO-31 > 100 µM | SK-OV-3 > 100 µM | HCT-116 50.9 µM | 786-0 68.1 µM | Malme-3M > 100 µM | NCI-H23 > 100 µM | SN12C 94.2 µM | OVCAR-4 > 100 µM | SK-MEL-2 > 100 µM | COLO 205 63 µM | UACC-257 51.5 µM | CAKI-1 > 100 µM | SNB-75 87.9 µM | OVCAR-3 > 100 µM

CC(C)c1cc2c(O)c(c1)Cc1cc(C(C)C)cc(c1O)Cc1cc(C(C)C)cc(c1O)Cc1cc(C(C)C)cc(c1O)Cc1cc(C(C)C)cc(c1O)Cc1cc(C(C)C)cc(c1O)C2
inactive: UO-31 > 100 µM | ACHN > 100 µM | HCT-116 > 100 µM | 786-0 > 100 µM | Malme-3M > 100 µM | NCI-H23 > 100 µM | SN12C > 100 µM | OVCAR-4 > 100 µM | SK-MEL-2 > 100 µM | COLO 205 > 100 µM | UACC-257 > 100 µM | SNB-75 24.9 µM | OVCAR-3 > 100 µM | EKVX > 100 µM

O=C(/C=C/c1ccccc1F)c1ccc([N+](=O)[O-])cc1
inactive: UO-31 11.6 µM | ACHN 31.2 µM | SK-OV-3 56.5 µM | LOX IMVI 4.35 µM | 786-0 26.8 µM | Malme-3M 27.8 µM | NCI-H23 31.2 µM | SN12C 37.8 µM | OVCAR-4 25.3 µM | COLO 205 35.2 µM | CAKI-1 15.5 µM | SNB-75 4.58 µM | OVCAR-3 24.6 µM | EKVX 38.5 µM

Cc1nc(N)c(-c2ccccc2)s1
inactive: UO-31 > 100 µM | ACHN > 100 µM | SK-OV-3 38.3 µM | HCT-116 31.7 µM | LOX IMVI 52.4 µM | 786-0 77.6 µM | Malme-3M > 100 µM | NCI-H23 > 100 µM | SN12C 81.3 µM | OVCAR-4 > 100 µM | SK-MEL-2 32.3 µM | COLO 205 > 47 µM | UACC-257 53.7 µM | CAKI-1 > 92.7 µM | SNB-75 86.7 µM | OVCAR-3 > 92 µM | EKVX > 94.6 µM

CCCN(CCC)C(=O)C(=O)c1c(N)[nH]n(-c2ccccc2)c1=O
inactive: UO-31 > 100 µM | ACHN > 100 µM | SK-OV-3 > 100 µM | HCT-116 > 100 µM | LOX IMVI > 100 µM | 786-0 > 100 µM | Malme-3M > 100 µM | NCI-H23 > 100 µM | SN12C > 100 µM | OVCAR-4 > 100 µM | SK-MEL-2 > 100 µM | COLO 205 > 100 µM | UACC-257 45.1 µM | CAKI-1 > 100 µM | OVCAR-3 > 100 µM | EKVX > 100 µM

COC(=O)C(=O)CC(=O)CCn1[nH]c(=O)c(Cl)c(Cl)c1=O
inactive: UO-31 > 100 µM | ACHN > 100 µM | HCT-116 > 100 µM | LOX IMVI > 100 µM | 786-0 > 100 µM | Malme-3M > 100 µM | NCI-H23 > 100 µM | SN12C > 100 µM | OVCAR-4 > 100 µM | SK-MEL-2 > 100 µM | COLO 205 > 100 µM | UACC-257 > 100 µM | CAKI-1 > 100 µM | SNB-75 > 100 µM | OVCAR-3 > 100 µM | EKVX > 100 µM

c1ccc2c(c1)SC(=C1Sc3ccccc3S1)S2
inactive: UO-31 > 100 µM | ACHN > 100 µM | SK-OV-3 > 100 µM | LOX IMVI 75.7 µM | 786-0 > 100 µM | Malme-3M > 100 µM | NCI-H23 > 100 µM | SN12C > 100 µM | OVCAR-4 > 100 µM | COLO 205 > 100 µM | CAKI-1 > 100 µM | SNB-75 22.4 µM | OVCAR-3 > 100 µM | EKVX > 100 µM
